Test results: ChEMBL document CHEMBL6153149, “Cyclic Peptides Targeting Granzyme B: Potential Applications as PET Imaging Agents” (ACS Med Chem Lett, 2025)
Bridge positions count the residues as written; N and C are the ends. Square brackets hold non-standard residues; d marks the D form. Peptide text beside a SMILES is read from it. * marks the point of attachment. X1 = O=C(O)CN1CCN(CC(=O)O)CC(Cc2ccc(NC(=S)*)cc2)N(CC(=O)O)CC1; NMeF = CN[C@@H](Cc1ccccc1)C(=O)O

Molecular target: Granzyme B (Homo sapiens, UniProt P10144)
Sequence (P10144 whole entry): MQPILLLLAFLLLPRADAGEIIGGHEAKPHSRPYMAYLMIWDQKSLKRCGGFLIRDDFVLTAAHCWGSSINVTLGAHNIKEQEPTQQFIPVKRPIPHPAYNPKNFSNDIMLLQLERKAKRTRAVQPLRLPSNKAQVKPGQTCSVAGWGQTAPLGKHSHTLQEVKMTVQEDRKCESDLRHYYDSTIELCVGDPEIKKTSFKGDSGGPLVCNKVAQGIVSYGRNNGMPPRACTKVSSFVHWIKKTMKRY
Test: Binding affinity to human granzyme B assessed as equilibrium dissociation constant by SPR method

CC(C)[C@@H]1NC(=O)[C@H](CC(=O)O)NC(=O)[C@H](Cc2ccc(O)cc2)NC(=O)[C@H](Cc2ccc(O)cc2)NC(=O)[C@H](Cc2ccccc2)N(C)C(=O)[C@H](Cc2ccccc2)N(C)C(=O)[C@H](Cc2ccccc2)NC(=O)CSC[C@@H](C(=O)NCC(=O)NCC(=O)N[C@@H](CCCCNC(=S)Nc2ccc(CC3CN(CC(=O)O)CCN(CC(=O)O)CCN3CC(=O)O)cc2)C(N)=O)NC(=O)[C@H](Cc2c[nH]cn2)NC(=O)[C@H](Cc2ccccc2)N(C)C(=O)[C@H](Cc2ccc(O)cc2)NC(=O)[C@H](C(C)C)NC(=O)[C@H](CC(=O)O)NC(=O)[C@H](C(C)C)NC(=O)[C@H](CC(=O)O)NC1=O (stereo partly specified) ({CH2CO}-F[NMeF][NMeF]YYDVDVDVY[NMeF]HCGGK(X1)-NH2; thioether N-15)
Kd: 1.1 nM
